Test results reported in patent publication US6998423B2, “Prevention of loss and restoration of bone mass by certain prostaglandin agonists” (priority 1996, dated 2006).

System: Bone Morphogenetic Protein 7 (BMP-7) expression in EP2 293S cells
Test: Induction of BMP-7 expression (Northern blot) in 293S cells transfected with the EP2 receptor
Type: cell-based, human
Settings: 10^−6M, RNA extracted at 8, 16 and 24 hours, Northern blot with 32P-labeled BMP-7 probe
Procedure: Methods: 293S and EP2 293S cells were grown in Dulbecco's Modified Egale medium (DMEM, Gibco, BRL; Gaithersburg, Md.). One day prior to treatment with PGE2or a prostaglandin agonist, cells were plated at a density of 1.5×10^6 cells /10 cm dish. […] Cells were harvested and RNA extracted at 8, 16 and 24 hours. Northern blot analysis of total ([…] ) was carried out by probing the blots with ^32P-labeled BMP-7 probe. The blots were normalized for RNA loading by hybridization with ^32P-labeled 18s ribosomal RNA probe. […] Given the known role of BMP-7 in kidney regeneration and the ability of a prostaglandin agonist to induce BMP-7 expression in 293S kidney cells in a time and receptor specific manner indicates a role for a prostaglandin agonist in kidney regeneration.

CCCCC[C@H](O)/C=C/[C@H]1[C@H](O)CC(=O)[C@@H]1C/C=C\CCCC(=O)O [PGE2, prostaglandin E2]
induction of the expression of BMP-7: in a time dependent manner induce the expression of BMP-7
